{"source": "paper PMC13114161", "about": "(Antibiotics, 2026)", "key": {"[1]": {"test_system": "P. aeruginosa ATCC 27853", "test": "MIC and levofloxacin potentiation (broth microdilution)", "format": "cell-based, Pseudomonas aeruginosa", "conditions": "for MIC: Pseudomonas aeruginosa, ATCC27853", "experimental": "Once synthesized, the three fluorinated EPI analogs (TXA11114, TXA11164 and TXA12027) were first assayed for their antibacterial activities against P. aeruginosa ATCC 27853. They had MICs of 100, >200 and 100 µg/mL, respectively (Table 1). […] Particularly, the inactivity of TXA11164 was surprising as the pKa values of both the amines are similar to that in TXA11114.\n(§1) MIC assays for potentiation of antimicrobial activity against P. aeruginosa were performed as described previously."}, "[2]": {"test_system": "multidrug-resistant P. aeruginosa clinical isolates from the CDC-FDA", "test": "Levofloxacin MIC potentiation, CDC-FDA isolates", "format": "cell-based, Pseudomonas aeruginosa", "conditions": "for MIC: Pseudomonas aeruginosa; for Levofloxacin MIC fold difference, +EPI / Levofloxacin MIC, +EPI: EPI […] (TXA11114, TXA09155) or 50 μg/mL (MC-04,124, PAβN)", "experimental": "In a comparative study, the levofloxacin-potentiating activity of TXA11114 was evaluated alongside the well-characterized EPIs PAβN and MC-04,124 using P. aeruginosa clinical isolates obtained from the CDC and FDA Antimicrobial Resistance Isolate Bank and the Walter Reed Army Institute of Research (WRAIR). […] While PAβN has been widely studied in laboratory strains, its activity against the CDC/FDA P. aeruginosa panel has been reported only sparingly, limiting direct cross-study comparisons.\nas §1"}, "[3]": {"test_system": "P. aeruginosa DA7232 (gyrA-T83I, parC-S80L)", "test": "Levofloxacin MIC potentiation", "format": "cell-based, Pseudomonas aeruginosa", "conditions": "Pseudomonas aeruginosa, read-out: Levofloxacin MIC", "experimental": "as §1"}, "[4]": {"test_system": "P. aeruginosa CDC AR-0232, AR-0248, AR-0249", "format": "cell-based, Pseudomonas aeruginosa", "experimental": "Frequency-of-resistance studies were carried out as described previously."}, "[5]": {"test_system": "P. aeruginosa ATCC 27853", "test": "Neutropenic murine thigh infection model", "format": "in vivo, CD-1 mice", "conditions": "for Mean Log10 CFU (thigh): +24 hr", "experimental": "Female CD-1 mice (6–8 weeks old; 22 ± 2 g) were obtained from Envigo Laboratories, quarantined for at least 3 days, and housed 5 per cage in accordance with the approved IACUC protocol (IACUC-2017-0049). Neutropenia was induced by intraperitoneal (IP) administration of cyclophosphamide (Cytoxan) at 150 mg/kg on day 4 and 100 mg/kg on day 1 prior to infection.\nMice were infected intramuscularly (IM) in the right thigh with 0.1 mL of bacterial suspension containing approximately 1 × 10^5–10^6 CFU/mL. […] At 2 h or 24 h post-infection, mice were euthanized by CO2 asphyxiation, and thighs were aseptically excised and placed in 2 mL sterile phosphate-buffered saline (PBS) on ice. Tissue homogenization was performed using a Polytron PT10-35 (12 mm aggregate, Kinematica, Malters, Switzerland).\nPlates were incubated overnight at 37 °C, and colonies were enumerated the following day."}, "[6]": {"biological_target": "T1, CYP1A2 (Homo sapiens, UniProt P05177)", "T1 construct": "from tissue; host or cells: human liver microsomes", "T1 sequence (P05177 whole entry)": "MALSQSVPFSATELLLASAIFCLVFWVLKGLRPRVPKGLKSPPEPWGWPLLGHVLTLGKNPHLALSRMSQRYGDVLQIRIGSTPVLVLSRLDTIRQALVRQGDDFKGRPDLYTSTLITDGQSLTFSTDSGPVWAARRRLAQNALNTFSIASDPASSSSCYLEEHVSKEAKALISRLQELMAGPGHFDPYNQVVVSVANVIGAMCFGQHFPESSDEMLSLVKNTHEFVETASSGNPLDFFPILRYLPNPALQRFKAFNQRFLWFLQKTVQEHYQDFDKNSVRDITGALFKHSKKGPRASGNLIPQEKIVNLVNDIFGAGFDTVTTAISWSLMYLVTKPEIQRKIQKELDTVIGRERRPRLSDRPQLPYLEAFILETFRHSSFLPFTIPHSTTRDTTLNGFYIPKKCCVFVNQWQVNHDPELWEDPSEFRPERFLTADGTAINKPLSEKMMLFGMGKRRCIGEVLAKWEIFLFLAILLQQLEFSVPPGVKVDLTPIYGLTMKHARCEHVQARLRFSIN", "test": "Cytochrome P450 inhibition", "format": "in vitro ADME", "conditions": "probe phenacetin; human liver microsomes; read-out: CYP Inhibition IC50, 1A2", "experimental": "(§2) Inhibition of CYP1A2, CYP2D6, CYP2C9, CYP2C19, and CYP3A4 by TXA11114 was assessed in human liver microsomes by measuring the inhibition of probe substrate metabolism. Phenacetin, bufuralol, diclofenac, S-mephenytoin, and midazolam were used as probe substrates for CYP1A2, CYP2D6, CYP2C9, CYP2C19, and CYP3A4, respectively. Corresponding metabolites (acetaminophen, OH-bufuralol, 4-OH diclofenac, 4-OH mephenytoin, and 1-OH midazolam) were quantified by LC-MS/MS. Selective inhibitors (fluvoxamine (CYP1A2), quinidine (CYP2D6), sulfaphenazole (CYP2C9), ticlopidine (CYP2C19), and ketoconazole (CYP3A4)) were used as positive controls. Test and control compounds, prepared in DMSO at various concentrations, were spiked into 2× microsomal reaction mixtures, and 50 µL aliquots were transferred to individual wells. Probe substrates (25 µL, 4× concentration) were added to the respective wells and pre-incubated for 5 min at 37 °C. Reactions were initiated by the addition of 25 µL NADPH (4×) and incubated for 5 min (CYP3A4), 10 min (CYP1A2, CYP2D6, CYP2C9), or 20 min (CYP2C19). Reactions were quenched with 100 µL ice-cold acetonitrile containing glipizide as an internal standard. Plates were centrifuged at 4000 rpm for 15 min, and 100 µL supernatants were analyzed by LC-MS/MS in MRM mode. […] Percent inhibition was calculated as 100 − percent activity. IC50 values were determined using GraphPad Prism (version 5.02)."}, "[7]": {"biological_target": "T2, CYP2C19 (Homo sapiens, UniProt P33261)", "T2 construct": "from tissue; host or cells: human liver microsomes", "T2 sequence (P33261 whole entry)": "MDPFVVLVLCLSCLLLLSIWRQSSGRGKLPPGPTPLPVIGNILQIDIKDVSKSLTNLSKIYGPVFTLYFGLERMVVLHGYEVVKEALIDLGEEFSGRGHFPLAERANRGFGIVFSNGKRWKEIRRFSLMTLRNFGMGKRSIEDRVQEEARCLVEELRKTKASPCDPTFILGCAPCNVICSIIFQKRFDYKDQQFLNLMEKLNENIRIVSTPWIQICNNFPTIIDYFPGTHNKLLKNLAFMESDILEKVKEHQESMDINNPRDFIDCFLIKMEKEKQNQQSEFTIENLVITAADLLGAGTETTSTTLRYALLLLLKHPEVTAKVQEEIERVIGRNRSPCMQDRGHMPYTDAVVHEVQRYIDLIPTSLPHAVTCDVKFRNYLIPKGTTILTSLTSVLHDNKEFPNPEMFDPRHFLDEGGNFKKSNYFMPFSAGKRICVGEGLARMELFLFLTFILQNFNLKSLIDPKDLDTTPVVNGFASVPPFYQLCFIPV", "test": "Cytochrome P450 inhibition", "format": "in vitro ADME", "conditions": "probe S-mephenytoin; human liver microsomes; read-out: CYP Inhibition IC50, 2C19", "experimental": "as §2"}, "[8]": {"biological_target": "T3, CYP2C9 (Homo sapiens, UniProt P11712)", "T3 construct": "from tissue; host or cells: human liver microsomes", "T3 sequence (P11712 whole entry)": "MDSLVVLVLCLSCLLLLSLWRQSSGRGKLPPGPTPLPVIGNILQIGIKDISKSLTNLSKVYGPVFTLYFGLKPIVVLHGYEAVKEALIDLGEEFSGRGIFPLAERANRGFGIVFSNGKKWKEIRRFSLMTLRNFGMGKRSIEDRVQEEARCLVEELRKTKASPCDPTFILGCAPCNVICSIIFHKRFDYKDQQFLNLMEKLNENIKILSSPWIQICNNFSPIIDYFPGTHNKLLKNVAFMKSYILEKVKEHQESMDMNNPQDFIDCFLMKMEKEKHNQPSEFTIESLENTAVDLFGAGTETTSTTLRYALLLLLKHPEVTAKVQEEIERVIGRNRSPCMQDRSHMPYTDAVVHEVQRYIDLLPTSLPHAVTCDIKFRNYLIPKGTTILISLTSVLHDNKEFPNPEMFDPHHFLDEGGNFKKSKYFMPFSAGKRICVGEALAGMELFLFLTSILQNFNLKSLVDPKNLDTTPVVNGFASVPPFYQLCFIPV", "test": "Cytochrome P450 inhibition", "format": "in vitro ADME", "conditions": "probe diclofenac; human liver microsomes; read-out: CYP Inhibition IC50, 2C9", "experimental": "as §2"}, "[9]": {"conditions": "levofloxacin 10 mg/kg SC QID, alone or with TXA11114 30 mg/kg IV QID"}}, "note": "Where two headings read alike, the source gives them in different places."}
{"smiles": "C[C@H]1COc2c(N3CCN(C)CC3)c(F)cc3c(=O)c(C(=O)O)cn1c23", "note": "[Levofloxacin, levofloxacin]", "values": [{"measurement": "MIC", "setting": "[1]; ATCC 27853 parent strain (Table S1), read-out: MIC", "result": 1, "unit": "µg/mL"}, {"measurement": "MIC", "setting": "[2]; read-out: Levofloxacin MIC, No EPI, AR-0229", "result": 64, "unit": "µg/mL"}, {"measurement": "MIC", "setting": "[2]; read-out: Levofloxacin MIC, No EPI, AR-0232", "result": 8, "unit": "µg/mL"}, {"measurement": "MIC", "setting": "[2]; read-out: Levofloxacin MIC, No EPI, AR-0233", "result": 4, "unit": "µg/mL"}, {"measurement": "MIC", "setting": "[2]; read-out: Levofloxacin MIC, No EPI, AR-0234", "result": 8, "unit": "µg/mL"}, {"measurement": "MIC", "setting": "[2]; read-out: Levofloxacin MIC, No EPI, AR-0239", "result": 32, "unit": "µg/mL"}, {"measurement": "MIC", "setting": "[2]; read-out: Levofloxacin MIC, No EPI, AR-0242", "result": 8, "unit": "µg/mL"}, {"measurement": "MIC", "setting": "[2]; read-out: Levofloxacin MIC, No EPI, AR-0244", "result": 64, "unit": "µg/mL"}, {"measurement": "MIC", "setting": "[2]; read-out: Levofloxacin MIC, No EPI, AR-0246", "result": 64, "unit": "µg/mL"}, {"measurement": "MIC", "setting": "[2]; read-out: Levofloxacin MIC, No EPI, AR-0248", "result": 16, "unit": "µg/mL"}, {"measurement": "MIC", "setting": "[2]; read-out: Levofloxacin MIC, No EPI, AR-0249", "result": 64, "unit": "µg/mL"}, {"measurement": "MIC", "setting": "[2]; read-out: Levofloxacin MIC, No EPI, AR-0252", "result": 32, "unit": "µg/mL"}, {"measurement": "MIC", "setting": "[2]; read-out: Levofloxacin MIC, No EPI, AR-0253", "result": 2, "unit": "µg/mL"}, {"measurement": "MIC", "setting": "[2]; read-out: Levofloxacin MIC, No EPI, AR-0264", "result": 64, "unit": "µg/mL"}, {"measurement": "MIC", "setting": "[3]", "result": 256, "unit": "µg/mL"}, {"measurement": "Frequency of Resistance", "setting": "[4]; CDC AR-0232, levofloxacin 4× MIC (32 μg/mL) alone", "result": "1.68 × 10^−8"}, {"measurement": "Frequency of Resistance", "setting": "[4]; CDC AR-0248, levofloxacin 4× MIC (64 μg/mL) alone", "result": "8.64 × 10^−8"}, {"measurement": "Frequency of Resistance", "setting": "[4]; CDC AR-0249, levofloxacin 4× MIC (256 μg/mL) alone", "result": "2.15 × 10^−8"}, {"measurement": "Mean Log10 CFU (thigh)", "setting": "[5]; [9]", "result": 7.41, "unit": "log10 CFU"}, {"measurement": "Mean Log10 CFU (thigh)", "setting": "[5]; levofloxacin 15 mg/kg SC QID, alone or with TXA11114 30 mg/kg IV QID", "result": 5.97, "unit": "log10 CFU"}, {"measurement": "Mean Log10 CFU (thigh)", "setting": "[5]; levofloxacin 20 mg/kg SC QID, alone or with TXA11114 30 mg/kg IV QID", "result": 4.47, "unit": "log10 CFU"}, {"measurement": "Mean Log10 CFU Change vs +2 hr Control, Δlog10 (treatment-baseline), thigh", "setting": "[5]; [9]", "result": 1.33, "unit": "log10 CFU"}]}
{"smiles": "NC[C@@H]1CN[C@H](CNC(=O)c2cc3ccc(-c4ccc(F)cc4)cc3[nH]2)C1", "note": "[TXA09155]", "values": [{"measurement": "Fold MIC reduction [LVX/EPI-LVX]", "setting": "[1]; EPI at […], ATCC 27853", "result": 16, "unit": "fold"}, {"measurement": "MIC", "setting": "[1]; EPI alone, ATCC 27853, read-out: EPI MIC", "result": 50, "unit": "µg/mL"}, {"measurement": "LVX MIC (+EPI)", "setting": "[1]; levofloxacin MIC with EPI at […], ATCC 27853", "result": 0.063, "unit": "µg/mL"}, {"measurement": "Levofloxacin MIC fold difference, +EPI", "setting": "[2]; AR-0229", "result": 32, "unit": "fold"}, {"measurement": "Levofloxacin MIC, +EPI", "setting": "[2]; AR-0229", "result": 2, "unit": "µg/mL"}, {"measurement": "Levofloxacin MIC fold difference, +EPI", "setting": "[2]; AR-0232", "result": 16, "unit": "fold"}, {"measurement": "Levofloxacin MIC, +EPI", "setting": "[2]; AR-0232", "result": 0.5, "unit": "µg/mL"}, {"measurement": "Levofloxacin MIC fold difference, +EPI", "setting": "[2]; AR-0233", "result": 32, "unit": "fold"}, {"measurement": "Levofloxacin MIC, +EPI", "setting": "[2]; AR-0233", "result": 0.125, "unit": "µg/mL"}, {"measurement": "Levofloxacin MIC fold difference, +EPI", "setting": "[2]; AR-0234", "result": 16, "unit": "fold"}, {"measurement": "Levofloxacin MIC, +EPI", "setting": "[2]; AR-0234", "result": 0.5, "unit": "µg/mL"}, {"measurement": "Levofloxacin MIC fold difference, +EPI", "setting": "[2]; AR-0239", "result": 16, "unit": "fold"}, {"measurement": "Levofloxacin MIC, +EPI", "setting": "[2]; AR-0239", "result": 4, "unit": "µg/mL"}, {"measurement": "Levofloxacin MIC, +EPI", "setting": "[2]; AR-0242", "result": 1, "unit": "µg/mL"}, {"measurement": "Levofloxacin MIC, +EPI", "setting": "[2]; AR-0244", "result": 2, "unit": "µg/mL"}, {"measurement": "Levofloxacin MIC fold difference, +EPI", "setting": "[2]; AR-0246", "result": "8, (8) fold"}, {"measurement": "Levofloxacin MIC, +EPI", "setting": "[2]; AR-0246", "result": "8, (8) μg/mL"}, {"measurement": "Levofloxacin MIC fold difference, +EPI", "setting": "[2]; AR-0248", "result": 32, "unit": "fold"}, {"measurement": "Levofloxacin MIC, +EPI", "setting": "[2]; AR-0248", "result": 0.5, "unit": "µg/mL"}, {"measurement": "Levofloxacin MIC fold difference, +EPI", "setting": "[2]; AR-0249", "result": 32, "unit": "fold"}, {"measurement": "Levofloxacin MIC, +EPI", "setting": "[2]; AR-0249", "result": 2, "unit": "µg/mL"}, {"measurement": "Levofloxacin MIC fold difference, +EPI", "setting": "[2]; AR-0252", "result": 64, "unit": "fold"}, {"measurement": "Levofloxacin MIC, +EPI", "setting": "[2]; AR-0252", "result": 0.5, "unit": "µg/mL"}, {"measurement": "Levofloxacin MIC fold difference, +EPI", "setting": "[2]; AR-0253", "result": 64, "unit": "fold"}, {"measurement": "Levofloxacin MIC, +EPI", "setting": "[2]; AR-0253", "result": 0.031, "unit": "µg/mL"}, {"measurement": "Levofloxacin MIC, +EPI", "setting": "[2]; AR-0264", "result": 1, "unit": "µg/mL"}, {"measurement": "IC50 at 10 min", "setting": "[6]", "result": "> 100", "unit": "µM"}, {"measurement": "IC50 at 20 min", "setting": "[7]", "result": "> 100", "unit": "µM"}, {"measurement": "IC50 at 10 min", "setting": "[8]", "result": "> 100", "unit": "µM"}, {"measurement": "Improvement of levofloxacin efficacy in murine thigh or lung infection models", "setting": "[5]; thigh or lung infection models", "result": "neither TXA01182 nor TXA09155 improved levofloxacin efficacy"}]}
